US20230278981A1, “DICHLOROPHENOL HSD17B13 INHIBITORS AND USES THEREOF” (INIPHARM, INC., priority 2020, published 2023)

The compounds below were run against HSD17B13 (Homo sapiens (Human), UniProt Q7Z5P4) (assay: LC/MS estrone detection assay: conversion of estradiol to estrone by HSD17B13). Details: 4 μM estradiol, 6 mM NAD+, 30 nM HSD17B13 enzyme (E. coli expressed His-tagged), 2 hours at 26.5° C.
HSD17B13, sequence (Q7Z5P4 20-300): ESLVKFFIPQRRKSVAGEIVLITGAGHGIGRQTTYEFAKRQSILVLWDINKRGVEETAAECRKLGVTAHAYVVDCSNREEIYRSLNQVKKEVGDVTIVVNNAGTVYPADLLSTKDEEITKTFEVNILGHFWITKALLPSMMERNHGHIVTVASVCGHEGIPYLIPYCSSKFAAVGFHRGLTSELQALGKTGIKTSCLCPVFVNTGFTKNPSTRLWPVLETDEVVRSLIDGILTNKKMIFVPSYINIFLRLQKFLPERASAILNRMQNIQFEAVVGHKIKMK
Assay type: biochemical
In short: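 His-tagged E. coli-expressed HSD17B13 (30 nM) with 4 μM estradiol and 6 mM NAD+ in 1 M potassium phosphate pH 7.4, 0.5% DMSO, 2 h at 26.5° C. Estrone and estradiol quantified by LC-MS/MS after MeCN quench with D4-estrone internal standard; activity as % of uninhibited enzyme, IC50 by four-parameter fit, duplicates.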
With `Cc1nsc(NC(=O)c2cc(Cl)c(O)c(Cl)c2)c1C(=O)N[C@@H](C)c1ccccc1F` [Example 126, (S)-5-(3,5-dichloro-4-hydroxybenzamido)-N-(1-(2-fluorophenyl)ethyl)-3-methylisothiazole-4-carboxamide] the IC50 was ≤ 100 nM. For `O=C(NCc1ccccc1OC(F)(F)F)C1CCCN1C(=O)c1cc(Cl)c(O)c(Cl)n1` (centres unmarked) [Example 127, 1-(4,6-dichloro-5-hydroxypicolinoyl)-N-(2-(trifluoromethoxy)benzyl) pyrrolidine-2-carboxamide], the IC50 was > 10000 nM. For `O=C(NCc1ccccc1OC(F)(F)F)C1CCCN1C(=O)c1cc(Cl)c(O)c(Cl)c1` (centres unmarked) [Example 128, 1-(3,5-dichloro-4-hydroxybenzoyl)-N-(2-(trifluoromethoxy)benzyl) pyrrolidine-2-carboxamide], the IC50 was > 10000 nM. In the case of `O=C(Nc1cccc2ncn(Cc3cccnc3Cl)c(=O)c12)c1cc(Cl)c(O)c(Cl)n1` [Example 129, 4,6-dichloro-N-{3-[(2-chloropyridin-3-yl)methyl]-4. oxo-3,4-dihydroquinazolin-5-yl}-5-hydroxypyridine-2-carboxamide], the IC50 is reported as 100 to 500 nM. Compound `O=C(Nc1cccc2ncn(Cc3ncccc3F)c(=O)c12)c1cc(Cl)c(O)c(Cl)c1` [Example 130, 3,5-dichloro-N-{3-[(3-fluoropyridin-2-yl)methyl]-4-oxo-3,4-dihydroquinazolin-5-yl}-4-hydroxybenzamide] has an IC50 of 100 to 500 nM. In the case of `Cc1ccc2ncn(Cc3ccccc3OC(F)(F)F)c(=O)c2c1NC(=O)c1cc(Cl)c(O)c(Cl)n1` [Example 131, 4,6-dichloro-5-hydroxy-N-(6-methyl-4-oxo-3-{[2-(trifluoromethoxy)phenyl]methyl}-3,4-dihydroquinazolin-5-yl)pyridine-2-carboxamide], the IC50 is reported as 100 to 500 nM. For `O=C(Nc1ccc(F)c2ncn(Cc3ccccc3OC(F)(F)F)c(=O)c12)c1cc(Cl)c(O)c(Cl)c1` [Example 132, 3,5-dichloro-N-(8-fluoro-4-oxo-3-{[2-(trifluoromethoxy)phenyl]methyl}-3,4-dihydroquinazolin-5-yl)-4-hydroxybenzamide], the IC50 was ≤ 100 nM. With `O=C(Nc1ccc(F)c2ncn(Cc3ccccc3OC(F)(F)F)c(=O)c12)c1cc(Cl)c(O)c(Cl)n1` [Example 133, 4,6-dichloro-N-(8-fluoro-4-oxo-3-{[2-(trifluoromethoxy)phenyl]methyl}-3,4-dihydroquinazolin-5-yl)-5-hydroxypyridine-2-carboxamide] the IC50 was 100 to 500 nM. With `O=C(NC1CCCC1C(=O)NCc1ccccc1OC(F)(F)F)c1cc(Cl)c(O)c(Cl)n1` (centres unmarked) [Example 134, 4,6-dichloro-5-hydroxy-N-[2-({[2-(trifluoromethoxy)phenyl]methyl}carbamoyl)cyclopentyl] pyridine-2-carboxamide] the IC50 was 500 to 1000 nM. Compound `O=C(Nc1cccc2ncn(Cc3cccnc3F)c(=O)c12)c1cc(Cl)c(O)c(Cl)c1` [Example 137, 3,5-dichloro-N-{3-[(2-fluoropyridin-3-yl)methyl]-4-oxo-3,4-dihydroquinazolin-5-yl}-4-hydroxybenzamide] has an IC50 of 100 to 500 nM. In the case of `O=C(Nc1cccc2ncn(Cc3cccnc3F)c(=O)c12)c1cc(Cl)c(O)c(Cl)n1` [Example 138, 4,6-dichloro-N-{3-[(2-fluoropyridin-3-yl)methyl]-4-oxo-3,4-dihydroquinazolin-5-yl}-5-hydroxypyridine-2-carboxamide], the IC50 is reported as 100 to 500 nM. `O=C(Nc1cccc2ncn(Cc3ncccc3F)c(=O)c12)c1cc(Cl)c(O)c(Cl)n1` [Example 140, 4,6-dichloro-N-(3-((3-fluoropyridin-2-yl)methyl)-4-oxo-3,4-dihydroquinazolin-5-yl)-5-hydroxypicolinamide] showed an IC50 of 100 to 500 nM. For `Cc1ccc(NC(=O)c2cc(Cl)c(O)c(Cl)n2)c2c(=O)n(Cc3ccccc3OC(F)(F)F)c(C)nc12` [Example 141, 4,6-dichloro-N-(2,8-dimethyl-4-oxo-3-(2-(trifluoromethoxy)benzyl)-3,4-dihydroquinazolin-5-yl)-5-hydroxypicolinamide], the IC50 was ≤ 100 nM. `Cc1ccc(NC(=O)c2cc(Cl)c(O)c(Cl)c2)c2c(=O)n(Cc3cccnc3C(F)(F)F)c(C)nc12` [Example 142, 3,5-dichloro-N-(2,8-dimethyl-4-oxo-3-((2-(trifluoromethyl)pyridin-3-yl)methyl)-3,4-dihydroquinazolin-5-yl)-4-hydroxybenzamide] showed an IC50 of 100 to 500 nM. In the case of `O=C(Nc1cccc2ncn(Cc3ncccc3Cl)c(=O)c12)c1cc(Cl)c(O)c(Cl)c1` [Example 143, 3,5-dichloro-N-(3-((3-chloropyridin-2-yl)methyl)-4-oxo-3,4-dihydroquinazolin-5-yl)-4-hydroxybenzamide], the IC50 is reported as ≤ 100 nM. For `O=C(N[C@H]1CCCC[C@@H]1C(=O)NCc1ccccc1OC(F)(F)F)c1cc(Cl)c(O)c(Cl)n1` [Example 144, 4,6-dichloro-5-hydroxy-N-((1S, 2S)-2-((2-(trifluoromethoxy)benzyl)carbamoyl)cyclohexyl)picolinamide], the IC50 was > 10000 nM. `O=C(N[C@@H]1CCCC[C@H]1C(=O)NCc1ccccc1OC(F)(F)F)c1cc(Cl)c(O)c(Cl)n1` [Example 145, 4,6-dichloro-5-hydroxy-N-((1R, 2R)-2-((2-(trifluoromethoxy)benzyl)carbamoyl)cyclohexyl)picolinamide] gave an IC50 of 1000 to 10000 nM. `Cc1ccc(NC(=O)c2cc(Cl)c(O)c(Cl)c2)c2c(=O)n(Cc3ncccc3C(F)(F)F)c(C)nc12` [Example 146, 3,5-dichloro-N-(2,8-dimethyl-4-oxo-3-((3-(trifluoromethyl)pyridin-2-yl)methyl)-3,4-dihydroquinazolin-5-yl)-4-hydroxybenzamide] was tested, and the IC50 was ≤ 100 nM. In the case of `Cc1ccc(NC(=O)c2cc(Cl)c(O)c(Cl)n2)c2c(=O)n(Cc3cccnc3C(F)(F)F)c(C)nc12` [Example 147, 4,6-dichloro-N-(2,8-dimethyl-4-oxo-3-((2-(trifluoromethyl)pyridin-3-yl)methyl)-3,4-dihydroquinazolin-5-yl)-5-hydroxypicolinamide], the IC50 is reported as 100 to 500 nM. Work on `O=C(Nc1cccc2ncn(Cc3ncccc3Cl)c(=O)c12)c1cc(Cl)c(O)c(Cl)n1` [Example 148, 4,6-dichloro-N-(3-((3-chloropyridin-2-yl)methyl)-4-oxo-3,4-dihydroquinazolin-5-yl)-5-hydroxypicolinamide] yielded an IC50 of 100 to 500 nM. In the case of `Cc1ccc(NC(=O)c2cc(Cl)c(O)c(Cl)c2)c2c(=O)n(Cc3ccccc3OC(F)(F)F)c(C(F)F)nc12` [Example 149, 3,5-dichloro-N-(2-(difluoromethyl)-8-methyl-4-oxo-3-(2-(trifluoromethoxy)benzyl)-3,4-dihydroquinazolin-5-yl)-4-hydroxybenzamide], the IC50 is reported as ≤ 100 nM. In the case of `Cc1nc2c(F)ccc(NC(=O)c3cc(Cl)c(O)c(Cl)n3)c2c(=O)n1Cc1ccccc1OC(F)(F)F` [Example 150, 4,6-dichloro-N-(8-fluoro-2-methyl-4-oxo-3-(2-(trifluoromethoxy)benzyl)-3,4-dihydroquinazolin-5-yl)-5-hydroxypicolinamide], the IC50 is reported as ≤ 100 nM. With `Cc1ccc(NC(=O)c2cc(Cl)c(O)c(Cl)c2)c2c(=O)n(Cc3ccccc3C(F)(F)F)c(C)nc12` [Example 151, 3,5-dichloro-N-(2,8-dimethyl-4-oxo-3-(2-(trifluoromethyl)benzyl)-3,4-dihydroquinazolin-5-yl)-4-hydroxybenzamide] the IC50 was ≤ 100 nM.
